From patent US8431565B2 (priority 2007, dated 2013)

Target: T1, rat CB2 receptor (rCB2) (Rattus norvegicus, UniProt Q9QZN9)
T1 sequence (Q9QZN9 1-360): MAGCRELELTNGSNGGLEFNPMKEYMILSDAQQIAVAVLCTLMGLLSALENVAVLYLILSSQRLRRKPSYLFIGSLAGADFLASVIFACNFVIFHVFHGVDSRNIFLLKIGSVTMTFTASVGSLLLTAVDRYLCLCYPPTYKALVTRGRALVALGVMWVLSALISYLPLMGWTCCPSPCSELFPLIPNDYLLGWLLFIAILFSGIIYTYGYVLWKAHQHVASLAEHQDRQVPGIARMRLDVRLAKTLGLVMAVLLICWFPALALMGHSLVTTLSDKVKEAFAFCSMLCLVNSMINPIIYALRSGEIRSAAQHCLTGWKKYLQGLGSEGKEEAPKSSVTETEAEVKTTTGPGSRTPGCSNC

For CC(C)(C)OC(=O)N1CCn2c(-c3ccc(Cl)cc3)nc(C(=O)N[C@H](CO)C(C)(C)C)c2C1 (stereo in doubt) [Compound 34, tert-butyl 3-(4-chlorophenyl)-1-(1-hydroxy-3,3-dimethylbutan-2-ylcarbamoyl)-5,6-dihydroimidazo[1,5-a]pyrazine-7(8H)-carboxylate], the EC50 was 0.01 to 0.1 µM.

CNC(=O)[C@@H](NC(=O)c1nc(-c2cccc(C(F)(F)F)c2)n2c1CNCC2)C(C)(C)C [Compound 3, (S)-N-(3,3-dimethyl-1-(methylamino)-1-oxobutan-2-yl)-3-(3-(trifluoromethyl)phenyl)-5,6,7,8-tetrahydroimidazo[1,5-a]pyrazin-1-carboxamide] showed an EC50 of 0.01 to 0.1 µM.

CNC(=O)[C@@H](NC(=O)c1nc(-c2ccc(C(F)(F)F)cc2)n2c1CNCC2)C(C)(C)C [Compound 5, (S)-N-(3,3-dimethyl-1-(methylamino)-1-oxobutan-2-yl)-3-(4-(trifluoromethyl)phenyl)-5,6,7,8-tetrahydroimidazo[1,5-a]pyrazin-1-carboxamide] gave an EC50 of 0.01 to 0.1 µM.

With CNC(=O)[C@@H](NC(=O)c1nc(-c2ccc(F)c(C)c2)n2c1CNCC2)C(C)(C)C [Compound 7, (S)-N-(3,3-dimethyl-1-(methylamino)-1-oxobutan-2-yl)-3-(4-fluoro-3-methylphenyl)-5,6,7,8-tetrahydroimidazo[1,5-a]pyrazin-1-carboxamide] the EC50 was 0.01 to 0.1 µM.

Work on CC(C)(C)OC(=O)N1CCn2c(-c3ccccc3)nc(C(=O)NC3C4(C)CCC(C4)C3(C)C)c2C1 (centres unmarked) [Compound 30, tert-butyl 3-phenyl-1-(1,3,3-trimethylbicyclo[2.2.1]heptan-2-ylcarbamoyl)-5,6-dihydroimidazo[1,5-a]pyrazine-7(8H)-carboxylate] yielded an EC50 of 0.01 to 0.1 µM.

CC(C)(C)OC(=O)N1CCn2c(-c3ccccc3)nc(C(=O)NC3CCCCC3)c2C1 [Compound 36, tert-butyl 1-(cyclohexylcarbamoyl)-3-phenyl-5,6-dihydroimidazo[1,5-a]pyrazine-7(8H)-carboxylate] showed an EC50 of 0.01 to 0.1 µM.

With C[C@@H](NC(=O)c1nc(-c2ccccc2)n2c1CN(C(=O)OC(C)(C)C)CC2)C1CCCCC1 [Compound 37, (R)-tert-butyl 1-(1-cyclohexylethylcarbamoyl)-3-phenyl-5,6-dihydroimidazo[1,5-a]pyrazine-7(8H)-carboxylate] the EC50 was 0.01 to 0.1 µM.

Molecule CNC(=O)[C@@H](NC(=O)c1nc(-c2ccc(Cl)cc2)n2c1CN(C)CC2)C(C)(C)C [Compound 49, (S)-3-(4-chlorophenyl)-N-(3,3-dimethyl-1-(methylamino)-1-oxobutan-2-yl)-7-methyl-5,6,7,8-tetrahydroimidazo[1,5-a]pyrazine-1-carboxamide] has an EC50 of 0.01 to 0.1 µM.

Work on CC(C)CN1CCn2c(-c3ccccc3)nc(C(=O)N[C@H](C)C(C)(C)C)c2C1 [Compound 52, (R)-N-(3,3-dimethylbutan-2-yl)-7-isobutyl-3-phenyl-5,6,7,8-tetrahydrimidazo[1,5-a]pyrazine-1-carboxamide] yielded an EC50 of 0.0001 to 0.01 µM.

CC(C)CN1CCn2c(-c3ccccc3)nc(C(=O)N[C@@H](C)C(C)(C)C)c2C1 [Compound 53, (S)-N-(3,3-dimethylbutan-2-yl)-7-isobutyl-3-phenyl-5,6,7,8-tetrahydroimidazo[1,5-a]pyrazine-1-carboxamide] showed an EC50 of 0.01 to 0.1 µM.

With CNC(=O)[C@@H](NC(=O)c1nc(-c2ccccc2)n2c1CN(CCC(C)(C)C)CC2)C(C)(C)C [Compound 54, (S)-N-(3,3-dimethyl-1-(methylamino)-1-oxobutan-2-yl)-7-(3,3-dimethylbutyl)-3-phenyl-5,6,7,8-tetrahydroimidazo[1,5-a]pyrazine-1-carboxamide] the EC50 was 0.01 to 0.1 µM.

Molecule CNC(=O)[C@@H](NC(=O)c1nc(-c2ccccc2)n2c1CN(CC1CC1)CC2)C(C)(C)C [Compound 56, (S)-7-(cyclopropylmethyl)-N-(3,3-dimethyl-1-(methylamino)-1-oxobutan-2-yl)-3-phenyl-5,6,7,8-tetrahydroimidazo[1,5-a]pyrazine-1-carboxamide] has an EC50 of 0.01 to 0.1 µM.

For CC(C)CN1CCn2c(-c3ccccc3)nc(C(=O)NCC(C)(C)C)c2C1 [Compound 58, 7-isobutyl-N-neopentyl-3-phenyl-5,6,7,8-tetrahydroimidazo[1,5-a]pyrazine-1-carboxamide], the EC50 was 0.01 to 0.1 µM.

Work on CC(C)CN1CCn2c(-c3ccccc3)nc(C(=O)N[C@H](CO)C(C)(C)C)c2C1 [Compound 60, (S)-N-(1-hydroxy-3,3-dimethylbutan-2-yl)-7-isobutyl-3-phenyl-5,6,7,8-tetrahydroimidazo[1,5-a]pyrazine-1-carboxamide] yielded an EC50 of 0.01 to 0.1 µM.

For CNC(=O)[C@@H](NC(=O)c1nc(-c2ccccc2)n2c1CN(Cc1ccco1)CC2)C(C)(C)C [Compound 64, (S)-N-(3,3-dimethyl-1-(methylamino)-1-oxobutan-2-yl)-7-(furan-2-ylmethyl)-3-phenyl-5,6,7,8-tetrahydroimidazo[1,5-a]pyrazine-1-carboxamide], the EC50 was 0.01 to 0.1 µM.

CC(C)CN1CCn2c(-c3ccccc3)nc(C(=O)N[C@@H](CO)C(C)(C)C)c2C1 [Compound 68, (R)-N-(1-hydroxy-3,3-dimethylbutan-2-yl)-7-isobutyl-3-phenyl-5,6,7,8-tetrahydroimidazo[1,5-a]pyrazine-1-carboxamide] showed an EC50 of 0.0001 to 0.01 µM.

Work on CNC(=O)[C@@H](NC(=O)c1nc(-c2ccccc2)n2c1CN(Cc1cccn1C)CC2)C(C)(C)C [Compound 71, (S)-N-(3,3-dimethyl-1-(methylamino)-1-oxobutan-2-yl)-7-((1-methyl-1H-pyrrol-2-yl)methyl)-3-phenyl-5,6,7,8-tetrahydroimidazo[1,5-a]pyrazine-1-carboxamide] yielded an EC50 of 0.01 to 0.1 µM.

CNC(=O)[C@@H](NC(=O)c1nc(-c2ccsc2)n2c1CN(CC1CC1)CC2)C(C)(C)C [Compound 74, (S)-7-(cyclopropylmethyl)-N-(3,3-dimethyl-1-(methylamino)-1-oxobutan-2-yl)-3-(thiophen-3-yl)-5,6,7,8-tetrahydroimidazo[1,5-a]pyrazine-1-carboxamide] gave an EC50 of 0.01 to 0.1 µM.

With CC(C)CN1CCn2c(-c3ccccc3)nc(C(=O)N[C@H](C(=O)N(C)C)C(C)(C)C)c2C1 [Compound 80, (S)-N-(1-(dimethylamino)-3,3-dimethyl-1-oxobutan-2-yl)-7-isobutyl-3-phenyl-5,6,7,8-tetrahydroimidazo[1,5-a]pyrazine-1-carboxamide] the EC50 was 0.01 to 0.1 µM.

Molecule CC(C)(C)[C@@H](CO)NC(=O)c1nc(-c2ccccc2)n2c1CN(CC1CC1)CC2 [Compound 84, (S)-7-(cyclopropylmethyl)-N-(1-hydroxy-3,3-dimethylbutan-2-yl)-3-phenyl-5,6,7,8-tetrahydroimidazo[1,5-a]pyrazine-1-carboxamide] has an EC50 of 0.01 to 0.1 µM.

Work on CNC(=O)[C@@H](NC(=O)c1nc(-c2ccccc2)n2c1CN(C(C)C)CC2)C(C)(C)C [Compound 85, (S)-N-(3,3-dimethyl-1-(methylamino)-1-oxobutan-2-yl)-7-isopropyl-3-phenyl-5,6,7,8-tetrahydroimidazo[1,5-a]pyrazine-1-carboxamide] yielded an EC50 of 0.01 to 0.1 µM.

Cc1noc([C@@H](NC(=O)c2nc(-c3ccccc3)n3c2CN(C)CC3)C(C)(C)C)n1 [Compound 87, (S)-N-(2,2-dimethyl-1-(3-methyl-1,2,4-oxadiazol-5-yl)propyl)-7-methyl-3-phenyl-5,6,7,8-tetrahydroimidazo[1,5-a]pyrazine-1-carboxamide] gave an EC50 of 0.01 to 0.1 µM.

Molecule Cc1noc([C@@H](NC(=O)c2nc(-c3ccccc3)n3c2CN(CC2CC2)CC3)C(C)(C)C)n1 [Compound 88, (S)-7-(cyclopropylmethyl)-N-(2,2-dimethyl-1-(3-methyl-1,2,4-oxadiazol-5-yl)propyl)-3-phenyl-5,6,7,8-tetrahydroimidazo[1,5-a]pyrazine-1-carboxamide] has an EC50 of 0.01 to 0.1 µM.

Cc1noc([C@@H](NC(=O)c2nc(-c3ccccc3)n3c2CN(C(C)C)CC3)C(C)(C)C)n1 [Compound 89, (S)-N-(2,2-dimethyl-1-(3-methyl-1,2,4-oxadiazol-5-yl)propyl)-7-isopropyl-3-phenyl-5,6,7,8-tetrahydrimidazo[1,5-a]pyrazine-1-carboxamide] gave an EC50 of 0.0001 to 0.01 µM.

Molecule Cc1noc([C@@H](NC(=O)c2nc(-c3ccccc3)n3c2CN(CC(C)C)CC3)C(C)(C)C)n1 [Compound 90, (S)-N-(2,2-dimethyl-1-(3-methyl-1,2,4-oxadiazol-5-yl)propyl)-7-isobutyl-3-phenyl-5,6,7,8-tetrahydroimidazo[1,5-a]pyrazine-1-carboxamide] has an EC50 of 0.0001 to 0.01 µM.

CNC(=O)[C@@H](NC(=O)c1nc(-c2ccccc2)n2c1CN(S(C)(=O)=O)CC2)C(C)(C)C [Compound 92, (S)-N-(3,3-dimethyl-1-(methylamino)-1-oxobutan-2-yl)-7-(methylsulfonyl)-3-phenyl-5,6,7,8-tetrahydroimidazo[1,5-a]pyrazine-1-carboxamide] was tested, and the EC50 was 0.01 to 0.1 µM.

CNC(=O)[C@@H](NC(=O)c1nc(-c2ccccc2)n2c1CN(S(=O)(=O)c1ccc(F)cc1)CC2)C(C)(C)C [Compound 93, (S)-N-(3,3-dimthyl-1-(methylamino)-1-oxobutan-2-yl)-7-(4-fluorophenylsulfonyl)-3-phenyl-5,6,7,8-tetrahydroimidazo[1,5-a]pyrazine-1-carboxamide] was tested, and the EC50 was 0.01 to 0.1 µM.

With CNC(=O)[C@@H](NC(=O)c1nc(-c2ccccc2)n2c1CN(S(=O)(=O)C(C)C)CC2)C(C)(C)C [Compound 94, (S)-N-(3,3-dimethyl-1-(methylamino)-1-oxobutan-2-yl)-7-(isopropylsulfonyl)-3-phenyl-5,6,7,8-tetrahydrimidazo[1,5-a]pyrazine-1-carboxamide] the EC50 was 0.01 to 0.1 µM.

Molecule CNC(=O)[C@@H](NC(=O)c1nc(-c2ccccc2)n2c1CN(S(=O)(=O)CC(C)C)CC2)C(C)(C)C [Compound 95, (S)-N-(3,3-dimethyl-1-(methylamino)-1-oxobutan-2-yl)-7-(isobutylsulfonyl)-3-phenyl-5,6,7,8-tetrahydroimidazo[1,5-a]pyrazine-1-carboxamide] has an EC50 of 0.01 to 0.1 µM.
